target: T1, KRAS^G12C::SOS1 (Homo sapiens, UniProt Q07889); experiment: KRAS G12C::SOS1 protein-protein interaction (PPI) inhibition assay (HTRF binding kit)
T1 sequence (Q07889 1-1333): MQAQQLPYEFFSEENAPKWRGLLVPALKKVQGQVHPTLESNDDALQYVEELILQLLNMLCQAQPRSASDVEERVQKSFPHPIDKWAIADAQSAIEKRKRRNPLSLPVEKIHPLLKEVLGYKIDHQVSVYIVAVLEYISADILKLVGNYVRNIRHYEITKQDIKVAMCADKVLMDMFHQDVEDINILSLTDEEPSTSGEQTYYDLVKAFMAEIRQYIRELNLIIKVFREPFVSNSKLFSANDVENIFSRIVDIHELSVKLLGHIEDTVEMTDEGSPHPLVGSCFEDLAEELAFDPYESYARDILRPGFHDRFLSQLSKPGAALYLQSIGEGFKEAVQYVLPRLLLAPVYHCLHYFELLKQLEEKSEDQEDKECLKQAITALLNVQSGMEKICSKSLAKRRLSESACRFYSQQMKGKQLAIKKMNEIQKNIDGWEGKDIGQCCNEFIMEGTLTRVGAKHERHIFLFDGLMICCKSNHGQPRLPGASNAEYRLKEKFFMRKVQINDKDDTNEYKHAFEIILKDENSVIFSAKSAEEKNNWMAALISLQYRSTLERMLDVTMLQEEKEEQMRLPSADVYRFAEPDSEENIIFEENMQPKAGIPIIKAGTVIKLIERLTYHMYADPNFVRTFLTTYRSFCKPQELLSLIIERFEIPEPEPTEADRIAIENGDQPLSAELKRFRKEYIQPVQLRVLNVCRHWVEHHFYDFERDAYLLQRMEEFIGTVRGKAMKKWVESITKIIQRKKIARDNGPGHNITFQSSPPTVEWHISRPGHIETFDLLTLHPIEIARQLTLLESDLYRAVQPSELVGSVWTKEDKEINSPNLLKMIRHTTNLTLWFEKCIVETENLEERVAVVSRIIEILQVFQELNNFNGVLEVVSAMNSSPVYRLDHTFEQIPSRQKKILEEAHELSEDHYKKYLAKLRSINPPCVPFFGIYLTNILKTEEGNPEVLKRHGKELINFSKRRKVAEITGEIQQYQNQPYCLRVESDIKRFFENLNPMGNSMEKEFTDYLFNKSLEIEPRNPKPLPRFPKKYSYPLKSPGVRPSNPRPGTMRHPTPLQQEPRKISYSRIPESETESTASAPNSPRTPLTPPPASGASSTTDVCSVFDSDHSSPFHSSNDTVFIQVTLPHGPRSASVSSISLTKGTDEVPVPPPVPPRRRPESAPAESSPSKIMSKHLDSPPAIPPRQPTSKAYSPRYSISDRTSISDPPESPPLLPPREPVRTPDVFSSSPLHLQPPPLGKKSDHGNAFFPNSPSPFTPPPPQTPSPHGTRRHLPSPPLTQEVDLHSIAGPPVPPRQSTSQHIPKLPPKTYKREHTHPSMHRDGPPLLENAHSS

IC50, 1 to 10 µM:
C[C@@H](NC(=O)c1nn(-c2ccccc2F)c(=O)cc1OCc1ccccc1)c1cccc(C(F)(F)CO)c1F [Example 364, 4-benzyloxy-N-[(1R)-1-[3-(1,1-difluoro-2-hydroxy-ethyl)-2-fluorophenyl]ethyl]-1-(2-fluorophenyl)-6-oxo-pyridazine-3-carboxamide]
C[C@@H](NC(=O)c1ccc(=O)n(-c2ccccc2F)n1)c1cc(N)cc(C#N)c1F [Example 216, N-[(1R)-1-(5-amino-3-cyano-2-fluoro-phenyl)ethyl]-1-(2-fluorophenyl)-6-oxo-pyridazine-3-carboxamide]
C[C@@H](NC(=O)c1ccc(=O)n(-c2cccc(-c3ncco3)c2)n1)c1cc(N)cc(C(F)(F)F)c1 [Example 239, N-[(1R)-1-[3-amino-5-(trifluoromethyl)phenyl]ethyl]-1-[3-(1,3-oxazol-2-yl)phenyl]-6-oxo-1,6-dihydropyridazine-3-carboxamide]

IC50, < 1 µM:
CNCc1cc(F)ccc1-c1ccc([C@@H](C)NC(=O)c2ccc(=O)n(-c3ccccc3F)c2)s1 [Example 280, N-[(1R)-1-[5-[4-fluoro-2-(methylaminomethyl)phenyl]-2-thienyl]ethyl]-1-(2-fluorophenyl)-6-oxo-pyridine-3-carboxamide]
Cc1ncc(-n2nc(C(=O)N[C@H](C)c3cc(N)cc(C(F)(F)F)c3)ccc2=O)cn1 [Example 161, N-[(1R)-1-[3-amino-5-(trifluoromethyl)phenyl]ethyl]-1-(2-methylpyrimidin-5-yl)-6-oxo-pyridazine-3-carboxamide]
C[C@@H](NC(=O)c1nn(-c2ccccc2)c(=O)cc1-c1ccccc1)c1cc(N)cc(C(F)(F)F)c1 [Example 368, N-[(1R)-1-[3-amino-5-(trifluoromethyl)phenyl]ethyl]-6-oxo-1,4-diphenyl-pyridazine-3-carboxamide]
Cc1c([C@@H](C)NC(=O)c2ccc(=O)n(-c3ccccc3F)n2)cccc1C(F)(F)CO [Example 246, N-[(1R)-1-[3-(1,1-difluoro-2-hydroxy-ethyl)-2-methyl-phenyl]ethyl]-1-(2-fluorophenyl)-6-oxo-pyridazine-3-carboxamide]
C[C@@H](NC(=O)c1ccc(=O)n(-c2cccc(-c3ncnn3C)c2)c1)c1cc(N)cc(C(F)(F)F)c1 [Example 318, N-[(1R)-1-[3-amino-5-(trifluoromethyl)phenyl]ethyl]-1-[3-(2-methyl-1,2,4-triazol-3-yl)phenyl]-6-oxo-pyridine-3-carboxamide]
C[C@@H](NC(=O)c1ccc(=O)n(-c2ccccc2)n1)c1cccc(S(F)(F)(F)(F)F)c1 [Example 190, 6-oxo-N-[(1R)-1-[3-(pentafluoro-λ6-sulfanyl)phenyl]ethyl]-1-phenyl-pyridazine-3-carboxamide]
C[C@@H](NC(=O)c1ccc(=O)n(-c2cccc(-c3ccno3)c2)n1)c1cc(N)cc(C(F)(F)F)c1 [Example 342, N-[(1R)-1-[3-amino-5-(trifluoromethyl)phenyl]ethyl]-1-(3-isoxazol-5-ylphenyl)-6-oxo-pyridazine-3-carboxamide]
C[C@@H](NC(=O)c1ccc(=O)n(-c2ccc(OC(F)(F)F)cc2)n1)c1cccc(C(F)(F)CO)c1F [Example 202, N-[(1R)-1-[3-(1,1-difluoro-2-hydroxy-ethyl)-2-fluoro-phenyl]ethyl]-6-oxo-1-[4-(trifluoromethoxy)phenyl]pyridazine-3-carboxamide]
COc1cccc(-n2nc(C(=O)N[C@H](C)c3cccc(C(F)(F)CO)c3F)ccc2=O)c1F [Example 184, N-[(1R)-1-[3-(1,1-difluoro-2-hydroxy-ethyl)-2-fluoro-phenyl]ethyl]-1-(2-fluoro-3-methoxyphenyl)-6-oxo-pyridazine-3-carboxamide]

From EP4667458A1 (Kanaph Therapeutics Inc., priority 2023, dated 2024)
